In ChEMBL document CHEMBL2177034, “Inhibition of hypoxia inducible factor-2 transcription: isolation of active modulators from marine sponges” (J Nat Prod, 2012):
Blank lines part the entries; values can stand above or below the molecule they belong to. The source made the active and inactive calls. The rule behind the calls is not given here.

Tests used:
[1] = molecular target: T1, Endothelial PAS domain-containing protein 1 (Homo sapiens, UniProt Q99814); experiment: Inhibition of HIF2alpha in human 786-0 cells assessed as reduction in GLUT1 mRNA expression after 48 hrs by RT-PCR analysis; type: cell-based
[2] = molecular target: Hypoxia-inducible factor 1-alpha (Homo sapiens) (UniProt Q16665); experiment: Inhibition of HIF1alpha in human RCC4 cells coexpressing HIF2alpha assessed as decrease in carbonic anhydrase 9 mRNA expression after 48 hrs by RT-PCR analysis; type: cell-based
[3] = molecular target: T1, Endothelial PAS domain-containing protein 1; experiment: Inhibition of HIF2alpha in human RCC4 cells coexpressing HIF1alpha assessed as reduction in CCND1 mRNA expression after 48 hrs by RT-PCR analysis; type: cell-based
[4] = Downregulation of HIF2alpha mRNA expression in human SK-RC-28 cells after 48 hrs by RT-PCR analysis; type: functional, cell-based
[5] = test system: 786-0; experiment: Downregulation of HIF2alpha mRNA expression in human 786-0 cells after 48 hrs by RT-PCR analysis; type: functional, cell-based
[6] = test system: 786-0; experiment: Downregulation of HIF1alpha mRNA expression in human 786-0 cells after 48 hrs by RT-PCR analysis; type: functional, cell-based
[7] = Downregulation of HIF1alpha mRNA expression in human RCC4 cells after 48 hrs by RT-PCR analysis; type: functional, cell-based
[8] = Downregulation of TGFalpha mRNA expression in human SK-RC-28 cells after 48 hrs by RT-PCR analysis; type: functional, cell-based
[9] = Downregulation of HIF1alpha mRNA expression in human SK-RC-28 cells after 48 hrs by RT-PCR analysis; type: functional, cell-based
[10] = molecular target: T1, Endothelial PAS domain-containing protein 1; experiment: Inhibition of HIF2alpha in human 786-0 cells expressing truncated HIF1alpha assessed as reduction in luciferase activity after 24 hrs by reporter gene assay; type: cell-based
[11] = molecular target: Hypoxia-inducible factor 1-alpha (Homo sapiens) (UniProt Q16665); experiment: Inhibition of HIF1alpha in human SK-RC-28 cells assessed as reduction in VEGFA after 48 hrs by RT-PCR analysis; type: cell-based
[12] = test system: 786-0; experiment: Down regulation of carbonic anhydrase 9 expression in human 786-0 cells after 48 hrs by RT-PCR analysis; type: functional, cell-based
[13] = molecular target: T1, Endothelial PAS domain-containing protein 1; experiment: Inhibition of HIF2alpha in human 786-0 cells assessed as reduction in VEGFA after 48 hrs by RT-PCR analysis; type: cell-based
[14] = molecular target: T1, Endothelial PAS domain-containing protein 1; experiment: Inhibition of HIF2alpha in human RCC4 cells coexpressing HIF1alpha assessed as reduction in GLUT1 mRNA expression after 48 hrs by RT-PCR analysis; type: cell-based
[15] = molecular target: Hypoxia-inducible factor 1-alpha (Homo sapiens) (UniProt Q16665); experiment: Inhibition of HIF1alpha in human SK-RC-28 cells assessed as reduction in carbonic anhydrase 9 expression after 48 hrs by RT-PCR analysis; type: cell-based
[16] = molecular target: T1, Endothelial PAS domain-containing protein 1; experiment: Inhibition of HIF2alpha in human RCC4 cells coexpressing HIF1alpha assessed as reduction in TGFalpha mRNA expression after 48 hrs by RT-PCR analysis; type: cell-based
[17] = molecular target: T1, Endothelial PAS domain-containing protein 1; experiment: Inhibition of HIF2alpha in human 786-0 cells assessed as reduction in TGFalpha mRNA expression after 48 hrs by RT-PCR analysis; type: cell-based
[18] = Downregulation of HIF2alpha mRNA expression in human RCC4 cells after 48 hrs by RT-PCR analysis; type: functional, cell-based
[19] = Downregulation of GLUT1 mRNA expression in human SK-RC-28 cells after 48 hrs by RT-PCR analysis; type: functional, cell-based
[20] = molecular target: T1, Endothelial PAS domain-containing protein 1; experiment: Inhibition of HIF2alpha in human 786-0 cells assessed as reduction in CCND1 mRNA expression after 48 hrs by RT-PCR analysis; type: cell-based
[21] = molecular target: Hypoxia inducible factors; HIF-1-alpha, HIF-2-alpha (Homo sapiens) (UniProt Q16665+Q99814); experiment: Inhibition of HIF1alpha/2alpha in human RCC4 cells assessed as reduction in VEGFA mRNA expression after 48 hrs by RT-PCR analysis; type: cell-based
[22] = Downregulation of CCND1 mRNA expression in human SK-RC-28 cells after 48 hrs by RT-PCR analysis; type: functional, cell-based

T1 sequence (Q99814 whole entry, the tested form may be a part): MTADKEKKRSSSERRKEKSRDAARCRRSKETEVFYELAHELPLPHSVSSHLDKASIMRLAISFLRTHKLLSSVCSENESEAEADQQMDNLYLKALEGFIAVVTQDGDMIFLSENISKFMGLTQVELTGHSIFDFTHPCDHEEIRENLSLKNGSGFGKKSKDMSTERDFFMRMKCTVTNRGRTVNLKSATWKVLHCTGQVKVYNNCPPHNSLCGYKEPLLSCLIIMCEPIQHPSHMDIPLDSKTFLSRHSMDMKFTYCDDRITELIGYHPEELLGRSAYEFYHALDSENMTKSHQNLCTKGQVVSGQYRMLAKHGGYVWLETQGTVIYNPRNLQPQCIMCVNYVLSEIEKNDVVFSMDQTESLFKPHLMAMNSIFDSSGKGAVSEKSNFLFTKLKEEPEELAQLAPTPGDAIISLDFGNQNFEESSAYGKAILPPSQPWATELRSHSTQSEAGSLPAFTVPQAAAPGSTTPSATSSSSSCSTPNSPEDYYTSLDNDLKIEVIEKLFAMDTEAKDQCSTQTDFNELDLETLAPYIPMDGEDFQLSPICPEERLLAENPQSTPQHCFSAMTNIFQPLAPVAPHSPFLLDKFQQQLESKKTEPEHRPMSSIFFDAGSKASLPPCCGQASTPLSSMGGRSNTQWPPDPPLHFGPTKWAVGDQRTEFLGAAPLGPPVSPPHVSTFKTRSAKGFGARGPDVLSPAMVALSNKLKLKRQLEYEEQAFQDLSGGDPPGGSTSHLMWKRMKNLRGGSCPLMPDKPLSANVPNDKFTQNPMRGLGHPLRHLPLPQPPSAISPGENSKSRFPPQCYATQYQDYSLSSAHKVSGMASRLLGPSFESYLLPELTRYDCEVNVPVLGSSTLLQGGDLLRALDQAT
Hypoxia-inducible factor 1-alpha (Homo sapiens), sequence (Q16665 whole entry, looked up, the tested form may be a part): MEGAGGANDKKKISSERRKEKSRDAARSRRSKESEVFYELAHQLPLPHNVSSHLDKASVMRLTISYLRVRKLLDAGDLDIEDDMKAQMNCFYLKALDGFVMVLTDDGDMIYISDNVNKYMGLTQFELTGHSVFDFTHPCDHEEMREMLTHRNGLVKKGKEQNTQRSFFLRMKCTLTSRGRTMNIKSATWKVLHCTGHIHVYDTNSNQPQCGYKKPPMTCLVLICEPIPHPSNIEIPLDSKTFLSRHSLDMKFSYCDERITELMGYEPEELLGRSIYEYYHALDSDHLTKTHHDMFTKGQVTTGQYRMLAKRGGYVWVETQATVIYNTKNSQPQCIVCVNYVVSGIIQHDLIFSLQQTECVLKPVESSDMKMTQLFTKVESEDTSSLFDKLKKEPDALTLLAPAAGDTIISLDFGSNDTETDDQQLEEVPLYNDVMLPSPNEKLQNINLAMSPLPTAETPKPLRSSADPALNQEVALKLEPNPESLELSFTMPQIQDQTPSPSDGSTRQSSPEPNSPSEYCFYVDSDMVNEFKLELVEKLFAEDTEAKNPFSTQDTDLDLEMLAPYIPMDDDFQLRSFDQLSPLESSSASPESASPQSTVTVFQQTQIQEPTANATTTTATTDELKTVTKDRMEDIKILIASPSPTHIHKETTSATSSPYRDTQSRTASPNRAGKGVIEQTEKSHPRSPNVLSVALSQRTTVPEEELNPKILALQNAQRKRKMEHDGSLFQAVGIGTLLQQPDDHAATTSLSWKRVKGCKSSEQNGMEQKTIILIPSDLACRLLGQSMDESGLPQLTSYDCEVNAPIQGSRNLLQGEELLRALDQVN

inhibition [1]: inactive | inhibition [2]: inactive | inhibition [3]: inactive | EC50 [10]: > 100 µM | inhibition [11]: inactive | inhibition [13]: inactive | inhibition [14]: inactive | inhibition [15]: inactive | inhibition [16]: inactive | inhibition [17]: inactive | inhibition [20]: inactive | inhibition [21]: inactive
Structure (SMILES): C/C=C(/C)C(=O)OCc1nccc2c1C(=O)C(O)=C(C)C2=O
Activity [4]: inactive | Activity [5]: inactive | Activity [6]: inactive | Activity [7]: inactive | Activity [8]: inactive | Activity [9]: inactive | Activity [12]: inactive | Activity [18]: inactive | Activity [19]: inactive | Activity [22]: inactive

EC50 [10]: > 100 µM
Structure (SMILES): CC(=O)OC[C@]12CCCC(C)(C)[C@@H]1CC[C@]1(C)[C@@H]2C[C@H]2OC(=O)[C@H]3[C@H](C(C)=O)[C@@H](O)C[C@@H]1[C@]23C

EC50 [10]: 4.2 µM
Structure (SMILES): CC(=O)O[C@H]1C[C@H]2[C@@](C)(CC[C@H]3C(C)(C)CCC[C@@]32C=O)[C@@H]2CC=C(C(C)=O)[C@H](C=O)[C@@]12C

EC50 [10]: > 100 µM
Structure (SMILES): COc1cc2ccnc3c2c(c1OC)NC=C3 [AAPTAMINE]
